Calls of active or inactive are those of the source. The rule behind the calls is not given here.
Assays:
[1] = test system: K562; test: Antiproliferative activity against human K562 cells assessed as inhibition of cell growth measured after 72 hrs by CCK8 assay; type: functional, cell-based; details: K562, 72 h
[2] = test system: HL-60; test: Antiproliferative activity against human HL-60 cells assessed as inhibition of cell growth measured after 72 hrs by CCK8 assay; type: functional, cell-based; details: HL-60, 72 h
[3] = test system: U-937; test: Antiproliferative activity against human U-937 cells assessed as inhibition of cell growth measured after 72 hrs by CCK8 assay; type: functional, cell-based; details: U-937, 72 h
[4] = test system: BaF3; test: Antiproliferative activity against mouse BaF3 cells expressing Bcr/Abl-T315I mutant assessed as inhibition of cell growth measured after 72 hrs by CCK8 assay; type: functional, cell-based; details: BaF3, 72 h
[5] = test system: MOLT-4; test: Antiproliferative activity against human MOLT-4 cells assessed as inhibition of cell growth measured after 72 hrs by CCK8 assay; type: functional, cell-based; details: MOLT-4, 72 h
[6] = test system: MV4-11; test: Antiproliferative activity against human MV4-11 cells assessed as inhibition of cell growth measured after 72 hrs by CCK8 assay; type: functional, cell-based; details: MV4-11, 72 h
[7] = test system: OCI-Ly3; test: Antiproliferative activity against human OCILY3 cells assessed as inhibition of cell growth measured after 72 hrs by CCK8 assay; type: functional, cell-based; details: OCI-Ly3, 72 h
[8] = test system: HCT-116; test: Antiproliferative activity against human HCT-116 cells assessed as inhibition of cell growth measured after 72 hrs by CCK8 assay; type: functional, cell-based; details: HCT-116, 72 h
[9] = test system: NCI-H716; test: Antiproliferative activity against human NCI-H716 cells assessed as inhibition of cell growth measured after 72 hrs by CCK8 assay; type: functional, cell-based; details: NCI-H716, 72 h
[10] = test system: NCI-H1975; test: Antiproliferative activity against human NCI-H1975 cells assessed as inhibition of cell growth measured after 72 hrs by CCK8 assay; type: functional, cell-based; details: NCI-H1975, 72 h
[11] = test system: NCI-H1299; test: Antiproliferative activity against human NCI-H1299 cells assessed as inhibition of cell growth measured after 72 hrs by CCK8 assay; type: functional, cell-based; details: NCI-H1299, 72 h
[12] = test system: 4T1; test: Antiproliferative activity against mouse 4T1 cells assessed as inhibition of cell growth measured after 72 hrs by CCK8 assay; type: functional, cell-based; details: 4T1, 72 h
[13] = test system: Huh-7; test: Antiproliferative activity against human Huh-7 cells assessed as inhibition of cell growth measured after 72 hrs by CCK8 assay; type: functional, cell-based; details: Huh-7, 72 h
[14] = Cytotoxicity against human HL7702 cells assessed as inhibition of cell growth measured after 72 hrs by CCK8 assay; type: toxicity, cell-based; details: HL7702 (L02) cells
[15] = test system: A204; test: Antiproliferative activity against human A204 cells assessed as inhibition of cell growth measured after 72 hrs by CCK8 assay; type: functional, cell-based; details: A204, 72 h
[16] = test system: MDA-MB-453; test: Antiproliferative activity against human MDA-MB-453 cells assessed as inhibition of cell growth measured after 72 hrs by CCK8 assay; type: functional, cell-based; details: MDA-MB-453, 72 h
[17] = test system: K562; test: Downregulation of Bcr-Abl expression in human K562 cells incubated for 24 hrs by Western blotting analysis; type: functional, cell-based; details: dose 11.1-900 nM
[18] = test system: K562; test: Downregulation of Myc expression in human K562 cells incubated for 24 hrs by Western blotting analysis; type: functional, cell-based; details: dose 11.1-900 nM
[19] = test system: K562; test: Downregulation of Mcl-1 expression in human K562 cells incubated for 24 hrs by Western blotting analysis; type: functional, cell-based; details: dose 11.1-900 nM
[20] = test system: K562; test: Downregulation of HSP90 expression in human K562 cells at 11.1 to 900 nM incubated for 24 hrs by Western blotting analysis; type: functional, cell-based; details: dose 11.1-900 nM
[21] = test system: K562; test: Downregulation of p38 expression in human K562 cells at 11.1 to 900 nM incubated for 24 hrs by Western blotting analysis; type: functional, cell-based; details: dose 11.1-900 nM

SMILES | IC50 [1] [nM] | IC50 [2] [nM] | IC50 [3] [nM] | further results
CCOC(=O)C[C@H](Cc1ccc(OCc2ccccc2)cc1)C(=O)O[C@@H]1C(OC)=C[C@]23CCCN2CCc2cc4c(cc2[C@H]13)OCO4 | 693 | 890 | 1050 | –
COC(=O)C[C@H](Cc1cccc(Br)c1)C(=O)O[C@@H]1C(OC)=C[C@]23CCCN2CCc2cc4c(cc2[C@H]13)OCO4 | 203 | 235 | 214 | –
COC(=O)C[C@H](Cc1cccc(OCc2ccccc2)c1)C(=O)O[C@@H]1C(OC)=C[C@]23CCCN2CCc2cc4c(cc2[C@H]13)OCO4 | 152 | 202 | 248 | –
COC(=O)C[C@H](Cc1ccccc1O)C(=O)O[C@@H]1C(OC)=C[C@]23CCCN2CCc2cc4c(cc2[C@H]13)OCO4 | 681 | 718 | 807 | –
COC(=O)C[C@H](Cc1ccccc1Br)C(=O)O[C@@H]1C(OC)=C[C@]23CCCN2CCc2cc4c(cc2[C@H]13)OCO4 | 464 | 535 | 700 | –
COC(=O)C[C@@H](Cc1ccccc1)C(=O)O[C@@H]1C(OC)=C[C@]23CCCN2CCc2cc4c(cc2[C@H]13)OCO4 | 404 | 548 | 725 | –
COC(=O)C[C@H](Cc1ccc(OCc2ccccc2)cc1)C(=O)O[C@@H]1C(OC)=C[C@]23CCCN2CCc2cc4c(cc2[C@H]13)OCO4 | 103 | 151 | 174 | –
Cc1ccc(NC(=O)c2ccc(CN3CCN(C)CC3)cc2)cc1Nc1nccc(-c2cccnc2)n1 [IMATINIB] | 135 | 28500 | 16600 | –
COC(=O)C[C@H](Cc1ccc(N)cc1)C(=O)O[C@@H]1C(OC)=C[C@]23CCCN2CCc2cc4c(cc2[C@H]13)OCO4 | 112 | 130 | 121 | IC50 [4]: 246 nM; IC50 [5]: 60 nM; IC50 [6]: 98 nM; IC50 [7]: 58 nM; IC50 [8]: 107 nM; IC50 [9]: 107 nM; IC50 [10]: 11.9 µM; IC50 [11]: 173 nM; IC50 [12]: 296 nM; IC50 [13]: 216 nM; IC50 at 72 h [14]: 494 nM; IC50 [15]: 38 nM; IC50 [16]: 70 nM; Activity [17]: Dose-Dependent Effect; Activity [18]: Dose-Dependent Effect; Activity [19]: Dose-Dependent Effect; Activity [20]: inactive; Activity [21]: inactive
COC(=O)C[C@H](C)C(=O)O[C@@H]1C(OC)=C[C@]23CCCN2CCc2cc4c(cc2[C@H]13)OCO4 | 14500 | 18000 | 13800 | –
COC(=O)C[C@H](Cc1cccc(F)c1)C(=O)O[C@@H]1C(OC)=C[C@]23CCCN2CCc2cc4c(cc2[C@H]13)OCO4 | 123 | 122 | 174 | –
COC(=O)C[C@H](Cc1ccc(NC(=O)OC(C)(C)C)cc1)C(=O)O[C@@H]1C(OC)=C[C@]23CCCN2CCc2cc4c(cc2[C@H]13)OCO4 | 149 | 155 | 130 | –
COC(=O)C[C@@H](Cc1cccs1)C(=O)O[C@@H]1C(OC)=C[C@]23CCCN2CCc2cc4c(cc2[C@H]13)OCO4 | 186 | 246 | 277 | –
COC(=O)C[C@H](Cc1ccccc1OCc1ccccc1)C(=O)O[C@@H]1C(OC)=C[C@]23CCCN2CCc2cc4c(cc2[C@H]13)OCO4 | 482 | 569 | 725 | –
COC(=O)C[C@H](Cc1cccc(N)c1)C(=O)O[C@@H]1C(OC)=C[C@]23CCCN2CCc2cc4c(cc2[C@H]13)OCO4 | 121 | 145 | 213 | –
COC(=O)C[C@H](Cc1ccc2ccccc2c1)C(=O)O[C@@H]1C(OC)=C[C@]23CCCN2CCc2cc4c(cc2[C@H]13)OCO4 | 344 | 396 | 441 | –
Cc1nc(Nc2ncc(C(=O)Nc3c(C)cccc3Cl)s2)cc(N2CCN(CCO)CC2)n1 [DASATINIB] | 1 | 15000 | 15000 | –
COC1=C[C@]23CCCN2CCc2cc4c(cc2[C@@H]3[C@@H]1O)OCO4 [CEPHALOTAXINE] | > 30000 | > 30000 | > 30000 | –
COC(=O)C[C@H](Cc1ccc(F)cc1)C(=O)O[C@@H]1C(OC)=C[C@]23CCCN2CCc2cc4c(cc2[C@H]13)OCO4 | 207 | 266 | 288 | –
COC(=O)C[C@H](Cc1ccc(Br)cc1)C(=O)O[C@@H]1C(OC)=C[C@]23CCCN2CCc2cc4c(cc2[C@H]13)OCO4 | 553 | 701 | 929 | –
COC(=O)C[C@H](Cc1ccccc1)C(=O)O[C@@H]1C(OC)=C[C@]23CCCN2CCc2cc4c(cc2[C@H]13)OCO4 | 96 | 155 | 170 | –
COC(=O)C[C@@H](Cc1ccc(F)cc1)C(=O)O[C@@H]1C(OC)=C[C@]23CCCN2CCc2cc4c(cc2[C@H]13)OCO4 | 373 | 597 | 673 | –
COC(=O)C[C@H](Cc1cccc(O)c1)C(=O)O[C@@H]1C(OC)=C[C@]23CCCN2CCc2cc4c(cc2[C@H]13)OCO4 | 139 | 184 | 176 | –
COC(=O)C[C@H](Cc1ccc(O)cc1)C(=O)O[C@@H]1C(OC)=C[C@]23CCCN2CCc2cc4c(cc2[C@H]13)OCO4 | 96 | 153 | 150 | –
COC(=O)C[C@H](Cc1cccc(NC(=O)OC(C)(C)C)c1)C(=O)O[C@@H]1C(OC)=C[C@]23CCCN2CCc2cc4c(cc2[C@H]13)OCO4 | 163 | 199 | 257 | –
COC(=O)C[C@H](CCC(C)(C)C)C(=O)O[C@@H]1C(OC)=C[C@]23CCCN2CCc2cc4c(cc2[C@H]13)OCO4 | 368 | 907 | 1220 | –
CCOC(=O)C[C@H](Cc1ccc(O)cc1)C(=O)O[C@@H]1C(OC)=C[C@]23CCCN2CCc2cc4c(cc2[C@H]13)OCO4 | 572 | 576 | 834 | –
COC(=O)C[C@](O)(CCCC(C)(C)O)C(=O)O[C@@H]1C(OC)=C[C@]23CCCN2CCc2cc4c(cc2[C@H]13)OCO4 [OMACETAXINE MEPESUCCINATE] | 14 | 13 | 12 | IC50 [4]: 81 nM; IC50 [5]: 7 nM; IC50 [6]: 5 nM; IC50 [7]: 5 nM; IC50 [8]: 13 nM; IC50 [9]: 65 nM; IC50 [10]: 0.022 µM; IC50 [11]: 22 nM; IC50 [12]: 60 nM; IC50 [13]: 40 nM; IC50 at 72 h [14]: 64 nM; IC50 [15]: 4 nM; IC50 [16]: 21 nM
COC(=O)C[C@H](Cc1ccc(OC(C)=O)cc1)C(=O)O[C@@H]1C(OC)=C[C@]23CCCN2CCc2cc4c(cc2[C@H]13)OCO4 | 121 | 142 | 204 | –

Source: ChEMBL document CHEMBL5247597, “Enantioselective semisynthesis of novel cephalotaxine esters with potent antineoplastic activities against leukemia” (Eur J Med Chem, 2022)
